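Exposure lasted 48 hours, with cells grown in 96-well plates and compounds tested at five concentrations. GI50 is the concentration that inhibits growth by half. TGI marks complete inhibition of growth.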
Columns and labels:
Assay in all cases: DTP human tumour cell line panel, 48 h
[1] = system: 786-0 renal
[2] = system: A498 renal
[3] = system: A549 NSCLC
[4] = system: ACHN renal
[5] = system: BT-549 breast
[6] = system: CAKI-1 renal
[7] = system: CCRF-CEM leukemia
[8] = system: COLO 205 colon
[9] = system: DU-145 prostate
[10] = system: EKVX NSCLC
[11] = system: HCC-2998 colon
[12] = system: HCT-116 colon
[13] = system: HCT-15 colon
[14] = system: HL-60(TB) leukemia
[15] = system: HOP-62 NSCLC
[16] = system: HOP-92 NSCLC
[17] = system: HS 578T breast
[18] = system: HT29 colon
[19] = system: IGROV1 ovarian
[20] = system: K-562 leukemia
[21] = system: KM12 colon
[22] = system: LOX IMVI melanoma
[23] = system: M14 melanoma
[24] = system: MALME-3M melanoma
[25] = system: MCF7 breast
[26] = system: MDA-MB-231 breast
[27] = system: MOLT-4 leukemia
[28] = system: NCI-H226 lung
[29] = system: NCI-H23 lung
[30] = system: NCI-H460 lung
[31] = system: NCI-H522 lung
[32] = system: NCI/ADR-RES ovarian
[33] = system: OVCAR-3 ovarian
[34] = system: OVCAR-4 ovarian
[35] = system: OVCAR-5 ovarian
[36] = system: OVCAR-8 ovarian
[37] = system: PC-3 prostate
[38] = system: RPMI-8226 leukemia
[39] = system: RXF 393 renal
[40] = system: SF-268 CNS
[41] = system: SF-295 CNS
[42] = system: SF-539 CNS
[43] = system: SK-MEL-2 melanoma
[44] = system: SK-MEL-28 melanoma
[45] = system: SK-MEL-5 melanoma
[46] = system: SK-OV-3 ovarian
[47] = system: SN12C renal
[48] = system: SNB-19 CNS
[49] = system: SNB-75 CNS
[50] = system: SR leukemia
[51] = system: SW-620 colon
[52] = system: T-47D breast
[53] = system: TK-10 renal
[54] = system: U251 CNS
[55] = system: UACC-257 melanoma
[56] = system: UACC-62 melanoma
[57] = system: UO-31 renal
[58] = system: MDA-MB-435

## N#CC1=C(N)Oc2cc3c(cc2C1c1cccs1)OCO3 (stereo not drawn)
[1]
  GI50: 686 nM
  TGI: > 68300 nM
[2]
  GI50: 234 nM
  TGI: 10200 nM
[3]
  GI50: 583 nM
  TGI: > 70900 nM
[4]
  GI50: 3630 nM
  TGI: > 100000 nM
[5]
  GI50: 882 nM
  TGI: 37600 nM
[6]
  GI50: 542 nM
  TGI: > 100000 nM
[7]
  GI50: 404 nM
  TGI: > 29800 nM
[8]
  GI50: 366 nM
  TGI: 1660 nM
[9]
  GI50: 824 nM
  TGI: > 100000 nM
[10]
  GI50: 1210 nM
  TGI: > 100000 nM
[11]
  GI50: 775 nM
  TGI: 11600 nM
[12]
  GI50: 407 nM
  TGI: > 62300 nM
[13]
  GI50: 486 nM
  TGI: > 100000 nM
[14]
  GI50: 247 nM
  TGI: 899 nM
[15]
  GI50: 484 nM
  TGI: > 100000 nM
[16]
  GI50: 660 nM
  TGI: 26200 nM
[17]
  GI50: 411 nM
[18]
  GI50: 377 nM
  TGI: 15200 nM
[19]
  GI50: 1100 nM
  TGI: > 100000 nM
[20]
  GI50: 205 nM
  TGI: > 100000 nM
[21]
  GI50: 325 nM
  TGI: > 59700 nM
[22]
  GI50: 679 nM
  TGI: > 61300 nM
[23]
  GI50: 387 nM
  TGI: > 100000 nM
[24]
  GI50: 580 nM
  TGI: > 100000 nM
[25]
  GI50: 343 nM
  TGI: > 62300 nM
[26]
  GI50: 5410 nM
  TGI: > 100000 nM
[27]
  GI50: 504 nM
  TGI: > 100000 nM
[28]
  GI50: 653 nM
  TGI: > 100000 nM
[29]
  GI50: 428 nM
  TGI: > 100000 nM
[30]
  GI50: 373 nM
  TGI: 24400 nM
[31]
  GI50: 190 nM
  TGI: 639 nM
[32]
  GI50: 232 nM
  TGI: 707 nM
[33]
  GI50: 236 nM
  TGI: 644 nM
[34]
  GI50: 4500 nM
  TGI: > 100000 nM
[35]
  GI50: 2820 nM
  TGI: > 85400 nM
[36]
  GI50: 587 nM
  TGI: > 52700 nM
[37]
  GI50: 1160 nM
  TGI: > 100000 nM
[38]
  GI50: 451 nM
  TGI: 40700 nM
[39]
  GI50: 311 nM
  TGI: 2700 nM
[40]
  GI50: 654 nM
  TGI: > 85600 nM
[41]
  GI50: 393 nM
  TGI: > 100000 nM
[42]
  GI50: 747 nM
  TGI: 11200 nM
[43]
  GI50: 252 nM
  TGI: 783 nM
[44]
  GI50: 1120 nM
  TGI: > 100000 nM
[45]
  GI50: 340 nM
  TGI: > 43500 nM
[46]
  GI50: 575 nM
  TGI: 8100 nM
[47]
  GI50: 723 nM
  TGI: > 100000 nM
[48]
  GI50: 1360 nM
  TGI: > 100000 nM
[49]
  GI50: 367 nM
  TGI: 4740 nM
[50]
  GI50: 270 nM
  TGI: > 100000 nM
[51]
  GI50: 356 nM
  TGI: > 100000 nM
[52]
  GI50: 595 nM
  TGI: > 70500 nM
[53]
  GI50: 1860 nM
  TGI: > 67800 nM
[54]
  GI50: 397 nM
  TGI: 31900 nM
[55]
  GI50: 502 nM
  TGI: > 100000 nM
[56]
  GI50: 485 nM
  TGI: > 100000 nM
[57]
  GI50: 1240 nM
  TGI: > 100000 nM

## COc1ccc2nc3cc(Cl)ccc3c(NCCCNCc3cc(OC)c(OC)c(OC)c3)c2c1
[7]
  TGI: > 100000 nM
[58]
  TGI: 3240 nM
[35]
  TGI: 3110 nM

## OC(c1cc2cc(Br)ccc2c2cc(Br)ccc12)C1CCCCN1 (stereo not drawn)
[6]
  GI50: 1760 nM
  TGI: 3540 nM
[9]
  GI50: 1950 nM
  TGI: 3430 nM
[14]
  GI50: 1750 nM
  TGI: 3430 nM
[16]
  GI50: 1210 nM
  TGI: 2670 nM
[35]
  GI50: 1580 nM
  TGI: 3130 nM
[57]
  GI50: 1460 nM
  TGI: 3180 nM

Reference: PubChem BioAssay (NCI)
